Measured values taken from ChEMBL document CHEMBL3822388, “In vivo phenotypic drug discovery: applying a behavioral assay to the discovery and optimization of novel antipsychotic agents” (Medchemcomm, 2016).
Calls of active or inactive are those of the source. The rule behind the calls is not given here.

How the values were obtained:
Mus musculus [1] = experiment: Antipsychotic activity in ip dosed mouse administered 15 mins prior to testing by SmartCube automated system based method; format: functional; details: for minimal effective dose: Mus musculus, ip, read-out: MED
Mus musculus [2] = experiment: Antipsychotic activity in mouse at 30 mg/kg, ip administered 15 mins prior to testing by SmartCube automated system based method relative to standard compound; format: functional
Liver microsome = experiment: Drug metabolism in human liver microsomes assessed as formation of 4-(3,4-dimethylthiophen-2-yl)pyrimidine at 3 uM in presence of NADPH by LC-MS/MS analysis; format: ADME
[3] = Chemical stability of the compound in 20 mM NH4Ac buffer solution at pH 7.1 after 96 hrs by HPLC analysis; format: physicochemical; details: pH 7.1, 96 h
[4] = Drug metabolism in mouse liver microsomes assessed as formation of 4-(3,4-dimethylthiophen-2-yl)pyrimidine at 3 uM in presence of NADPH by LC-MS/MS analysis; format: ADME
[5] = Chemical stability of the compound in 0.01 M HCl at pH 2 after 96 hrs by HPLC analysis; format: physicochemical; details: buffer, pH 2, 96 h
Mus musculus [6] = experiment: Antipsychotic activity in mouse at 3 to 30 mg/kg, ip dosed 15 mins prior to testing by SmartCube automated system based method relative to standard compound; format: functional, organism-based

**Q.** Which minimal effective dose (Mus musculus [1]) does the source give for `Cc1sc2cc(Cl)ccc2c1C1C=CN=CN1.Cl` (stereo not given) here?
**A.** 30 mg/kg

**Q.** Which MED (Mus musculus [1]) does the source give for `Cc1csc(C2C=CN=CN2)c1C.Cl` (stereo in doubt; 12b) here?
**A.** 30 mg/kg

**Q.** With `CCc1cc(Br)c(C2C=CN=CN2)s1.Cl` (stereo not given) as the molecule, how does the minimal effective dose (Mus musculus [1]) read?
**A.** 30 mg/kg

**Q.** With `Cc1sc2ccccc2c1C1C=CN=CN1.Cl` (stereo not given) as the molecule, how does the minimal effective dose (Mus musculus [1]) read?
**A.** 3 mg/kg

**Q.** For `Clc1c(C2C=CN=CN2)sc2ccccc12` (stereo not given), which Activity (Mus musculus [2]) is on record?
**A.** Active

**Q.** With `Cc1sc2ccccc2c1C1C=CN=CN1C.Cl` (stereo not given) as the molecule, how does the minimal effective dose (Mus musculus [1]) read?
**A.** 30 mg/kg

**Q.** For `Cl.Fc1ccc(-c2ccc(C3C=CN=CN3)s2)cc1` (stereo not given), which minimal effective dose (Mus musculus [1]) is on record?
**A.** 3 mg/kg

**Q.** For `Cc1sc(C2C=CN=CN2)c(C)c1C.Cl` (stereo not given), which minimal effective dose (Mus musculus [1]) is on record?
**A.** 30 mg/kg

**Q.** Which Activity (Mus musculus [2]) does the source give for `Fc1c(C2NC=Nc3ccccc32)sc2ccccc12` (stereo not given) here?
**A.** Active

**Q.** With `Cc1c(C2C=CN=CN2)sc2ccccc12` (stereo not given) as the molecule, how does the Activity (Mus musculus [2]) read?
**A.** Active

**Q.** For `Brc1c(C2C=CN=CN2)sc2ccccc12` (stereo not given), which Activity (Mus musculus [2]) is on record?
**A.** Active

**Q.** With `Cc1sc2c(c1C1C=CN=CN1)CCC2.Cl` (stereo not given) as the molecule, how does the minimal effective dose (Mus musculus [1]) read?
**A.** 10 mg/kg

**Q.** Which minimal effective dose (Mus musculus [1]) does the source give for `Cc1sc2c(F)cccc2c1C1C=CN=CN1.Cl` (stereo not given) here?
**A.** 10 mg/kg

**Q.** For `Cc1csc(C2C=CN=CN2)c1C.Cl` (stereo in doubt; 12a), which Drug metabolism (Liver microsome) is on record?
**A.** metabolite_notdetected

**Q.** What about the Stability [3] of the same molecule?
**A.** Unstable

**Q.** And the MED (Mus musculus [1])?
**A.** 3 mg/kg

**Q.** What about the Drug metabolism [4] of the same molecule?
**A.** metabolite_notdetected

**Q.** And the Stability [5]?
**A.** Stable

**Q.** Which Activity (Mus musculus [6]) does the source give for `Cc1csc(-c2ccncn2)c1C` here?
**A.** Active

**Q.** For `Cc1sc2ccccc2c1C1NC=Nc2cc(F)ccc21.Cl` (stereo not given), which minimal effective dose (Mus musculus [1]) is on record?
**A.** 30 mg/kg
